Data on 26 molecules can be found in US20220396569A1 (Carmot Therapeutics, Inc., priority 2021, published 2022).

In general, EC50 refers to the concentration at which the effect is half-maximal.

The experiment deals with T1, human GLP-1 receptor (Homo sapiens, UniProt P43220).
T1 construct: expressed in transfected cells
T1 sequence (P43220 24-463): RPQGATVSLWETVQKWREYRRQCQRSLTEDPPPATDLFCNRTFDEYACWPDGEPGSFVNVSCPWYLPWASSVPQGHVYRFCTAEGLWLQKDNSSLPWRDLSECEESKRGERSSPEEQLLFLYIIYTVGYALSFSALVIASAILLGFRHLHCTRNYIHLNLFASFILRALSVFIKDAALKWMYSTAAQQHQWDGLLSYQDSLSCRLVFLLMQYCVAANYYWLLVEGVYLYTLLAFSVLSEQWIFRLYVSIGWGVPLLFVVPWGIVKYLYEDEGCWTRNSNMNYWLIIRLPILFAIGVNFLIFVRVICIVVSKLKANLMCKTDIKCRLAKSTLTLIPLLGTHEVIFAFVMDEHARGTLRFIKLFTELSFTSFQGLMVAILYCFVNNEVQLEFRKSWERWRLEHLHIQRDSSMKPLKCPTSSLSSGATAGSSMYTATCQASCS
The experiment can be described thus: GLP-1R cAMP Assay (HitHunter cAMP accumulation). Type of experiment: cell-based. Conditions: cAMP accumulation, CHO cells stably overexpressing human GLP-1 receptor, 30 min treatment; read-out: EC50. The procedure: cAMP accumulation was measured in Chinese hamster ovary (CHO) cells stably overexpressing the human GLP-1 receptor using the HitHunter cAMP Assay for Small Molecules Kit (Eurofins). Briefly, cells were grown in Ham's F12 Nutrient Mix with 10% FBS, and lifted with Cell Dissociation Buffer, Enzyme free, PBS based (ThermoFisher). Cells were pelleted, and resuspended in Hank's buffered saline solution with 10 mM HEPES, and 625 μM 3-isobutyl-1-methylxanthine. The anti-cAMP antibody reagent was then added to cells at a 1:2 ratio and 5 μL of mixture was seeded in 384-well small volume white assay plates, at 10,000 cells/well. Cells were then treated with 50 nL compound using an ECHO 550 acoustic dispenser (Labcyte) in a 20-point dose response format in triplicate for 30 min. Cells were then lysed, and detection reagents added according to the manufacturer's protocol. After overnight incubation, luminescence was measured using a Perkin Elmer Envision plate reader. Dose response curves were analyzed using GraphPad Prism 9.0. […]
For `CC1(c2ccc(Cl)cn2)Oc2cccc(CC3CCN(Cc4nc5ccc(C(=O)O)cc5n4C[C@@H]4CCO4)CC3)c2O1` (stereo partly drawn) [Example 173, 2-((4-((2-(5-Chloropyridin-2-yl)-2-methylbenzo[d][1,3]dioxol-4-yl)methyl)piperidin-1-yl)methyl)-1-(((S)-oxetan-2-yl)methyl)-1H-benzo[d]imidazole-6-carboxylic acid], the EC50 was in the range of 50 to 500 nM. As to `O=C(O)c1ccc2nc(CN3CC=C(c4ccnc(COc5ccc(Cl)cc5F)c4)C3)n(C[C@@H]3CCO3)c2c1` [Compound 403, 2-[(3-{2-[(4-chloro-2-fluorophenoxy)methyl]pyridin-4-yl}-2,5-dihydro-1H-pyrrol-1-yl)methyl]-1-{[(2S)-oxetan-2-yl]methyl}-1H-1,3-benzodiazole-6-carboxylic acid], the EC50 is less than 50 nM.

In the case of `O=C(O)c1ccc2nc(CN3CC(Oc4ccnc(COc5ccc(F)cc5F)n4)C3)n(C[C@@H]3CCO3)c2c1` [Compound 550], the EC50 is less than 50 nM. With `N#Cc1ccc(OCc2nc([C@H]3CCN(Cc4nc5ccc(C(=O)O)cc5n4C[C@@H]4CCO4)C3)ccc2F)c(F)c1` (single isomer, unassigned) [Compound 519] the figure was less than 50 nM; with `O=C(O)c1ccc2nc(CN3CCC(c4cccc(COc5ccc(Cl)cc5Cl)n4)C3)n(C[C@@H]3CCO3)c2c1` (stereo partly drawn) [Example 386, 2-((3-(6-((2,4-Dichlorophenoxy)methyl)pyridin-2-yl)pyrrolidin-1-yl)methyl)-1-(((S)-oxetan-2-yl)methyl)-1H-benzo[d]imidazole-6-carboxylic acid], less than 50 nM; with `N#CCC1(Cn2c(CN3CC[C@H](c4ccnc(COc5ccc(Cl)cc5F)c4)C3)nc3c(F)cc(C(=O)O)cc32)CC1` [Compound 434, 2-{[(3R)-3-{2-[(4-chloro-2-fluorophenoxy)methyl]pyridin-4-yl}pyrrolidin-1-yl]methyl}-1-{[1-(cyanomethyl)cyclopropyl]methyl}-4-fluoro-1H-1,3-benzodiazole-6-carboxylic acid], 50 to 500 nM. With `N#CCC1(Cn2c(CN3CC=C(c4ccc(F)c(COc5ccc(C#N)cc5F)n4)C3)nc3ccc(C(=O)O)cc32)CC1` [Compound 422, 2-[(3-{6-[(4-cyano-2-fluorophenoxy)methyl]-5-fluoropyridin-2-yl}-2,5-dihydro-1H-pyrrol-1-yl)methyl]-1-{[l-(cyanomethyl)cyclopropyl]methyl}-1H-1,3-benzodiazole-6-carboxylic acid] the figure was less than 50 nM; with `O=C(O)c1ccc2nc(CN3CCC(c4cc(COc5ccc(Cl)cc5F)ccn4)C3)n(C[C@@H]3CCO3)c2c1` (stereo partly drawn) [Example 397, 2-((3-(4-((4-Chloro-2-fluorophenoxy)methyl)pyridin-2-yl)pyrrolidin-1-yl)methyl)-1-(((S)-oxetan-2-yl)methyl)-1H-benzo[d]imidazole-6-carboxylic acid], less than 50 nM; with `N#Cc1ccc(OCc2nc([C@@]34C[C@@H]3CN(Cc3nc5c(F)cc(C(=O)O)cc5n3C[C@@H]3CCO3)C4)ccc2F)c(F)c1` [Compound 531, 2-{[(1S,5S)-1-{6-[(4-cyano-2-fluorophenoxy)methyl]-5-fluoropyridin-2-yl}-3-azabicyclo[3.1.0]hexan-3-yl]methyl}-4-fluoro-1-{[(2S)-oxetan-2-yl]methyl}-1H-1,3-benzodiazole-6-carboxylic acid], less than 50 nM. Next, `O=C(O)c1ccc2nc(CN3CC=C(c4cccc(COc5ccc(Cl)cc5F)c4F)C3)n(C[C@@H]3CCO3)c2c1` [Compound 426, 2-[(3-{3-[(4-chloro-2-fluorophenoxy)methyl]-2-fluorophenyl}-2,5-dihydro-1H-pyrrol-1-yl)methyl]-1-{[(2S)-oxetan-2-yl]methyl}-1H-1,3-benzodiazole-6-carboxylic acid]: 50 to 500 nM.

Consider `O=C(O)c1ccc2nc(CN3CC=C(c4ccnc(COc5ccc(Cl)cc5Cl)c4)C3)n(Cc3ncco3)c2c1` [Compound 392], for which the EC50 is less than 50 nM.

Take `N#Cc1ccc(OCc2cc(Oc3ccc(Cc4nc5c(F)cc(C(=O)O)cc5n4C[C@@H]4CCO4)c(C#N)c3)ccn2)c(F)c1` [Compound 543, 2-{[2-cyano-4-({2-[(4-cyano-2-fluorophenoxy)methyl]pyridin-4-yl}oxy)phenyl]methyl}-4-fluoro-1-{[(2S)-oxetan-2-yl]methyl}-1H-1,3-benzodiazole-6-carboxylic acid]: the EC50 was less than 50 nM. With `O=C(O)c1ccc2nc(CN3CC=C(c4ccc(F)c(COc5ccc(Cl)cc5Cl)c4)C3)n(Cc3cnco3)c2c1` [Compound 387, 2-[(3-{3-[(2,4-dichlorophenoxy)methyl]-4-fluorophenyl}-2,5-dihydro-1H-pyrrol-1-yl)methyl]-1-[(1,3-oxazol-5-yl)methyl]-1H-1,3-benzodiazole-6-carboxylic acid] the figure was less than 50 nM. Next, `O=C(O)c1ccc2nc(CN3CC=C(c4cc(COc5ccc(Cl)cc5F)ccn4)C3)n(Cc3ncco3)c2c1` [Compound 394, 2-[(3-{4-[(4-chloro-2-fluorophenoxy)methyl]pyridin-2-yl}-2,5-dihydro-1H-pyrrol-1-yl)methyl]-1-[(1,3-oxazol-2-yl)methyl]-1H-1,3-benzodiazole-6-carboxylic acid]: 50 to 500 nM. With `O=C(O)c1ccc2nc(CN3CC[C@@H](c4ccc(F)c(COc5ccc(Cl)cc5F)n4)C3)n(C[C@@H]3CCO3)c2c1` (single isomer, unassigned) [Compound 516] the figure was less than 50 nM.

On to `N#Cc1ccc(OCc2ccc(F)c(C3CCN(Cc4nc5ccc(C(=O)O)cc5n4C[C@@H]4CCO4)C3)n2)c(F)c1` (stereo partly drawn) [Compound 520, 2-[(3-{6-[(4-cyano-2-fluorophenoxy)methyl]-3-fluoropyridin-2-yl}pyrrolidin-1-yl)methyl]-1-{[(2S)-oxetan-2-yl]methyl}-1H-1,3-benzodiazole-6-carboxylic acid], for which the EC50 is less than 50 nM. Next, `O=C(O)c1ccc2nc(CN3CC(=Cc4cccc(COc5ccc(Cl)cc5Cl)c4)C3)n(C[C@@H]3CCO3)c2c1` [Compound 195]: less than 50 nM; `CCn1cncc1Cn1c(Cc2ccc(Oc3ccnc(COc4ccc(C#N)cc4F)n3)cc2F)nc2ccc(C(=O)O)cc21` [Example 460, 2-(4-((2-((4-Cyano-2-fluorophenoxy)methyl)pyrimidin-4-yl)oxy)-2-fluorobenzyl)-1-((1-ethyl-1H-imidazol-5-yl)methyl)-1H-benzo[d]imidazole-6-carboxylic acid]: less than 50 nM. With `N#Cc1ccc(OCc2nccc(O[C@H]3C[C@@H](Cc4nc5ccc(C(=O)O)cc5n4C[C@@H]4CCO4)C3)n2)c(F)c1` [Compound 551] the figure was less than 50 nM; with `CCn1cncc1Cn1c(CN2CC(Cc3cccc(COc4ccc(Cl)cc4Cl)c3)C2)nc2ccc(C(=O)O)cc21` [Example 197, 2-((3-(3-((2,4-Dichlorophenoxy)methyl)benzyl)azetidin-1-yl)methyl)-1-((1-ethyl-1H-imidazol-5-yl)methyl)-1H-benzo[d]imidazole-6-carboxylic acid], less than 50 nM. With `CCn1cncc1Cn1c(CN2CC[C@@H](Oc3ccnc(COc4ccc(Cl)cc4Cl)c3)C2)nc2ccc(C(=O)O)cc21` [Compound 245, 2-{[(3R)-3-({2-[(2,4-dichlorophenoxy)methyl]pyridin-4-yl}oxy)pyrrolidin-1-yl]methyl}-1-[(1-ethyl-1H-imidazol-5-yl)methyl]-1H-1,3-benzodiazole-6-carboxylic acid] the figure was less than 50 nM; with `N#Cc1ccc(OCc2nc(N3CC[C@H](Cc4nc5c(F)cc(C(=O)O)cc5n4C[C@@H]4CCO4)C3)ccc2F)c(F)c1` [Compound 529], less than 50 nM. On to `O=C(O)c1ccc2nc(CN3CC=C(c4cc(COc5ccc(Cl)cc5F)ncc4F)C3)n(C[C@@H]3CCO3)c2c1` [Compound 440, 2-[(3-{2-[(4-chloro-2-fluorophenoxy)methyl]-5-fluoropyridin-4-yl}-2,5-dihydro-1H-pyrrol-1-yl)methyl]-1-{[(2S)-oxetan-2-yl]methyl}-1H-1,3-benzodiazole-6-carboxylic acid], for which the 50% effective concentration (EC50) is less than 50 nM. Regarding `Cc1ccc(OCc2cc(Oc3ccc(Cc4nc5ccc(C(=O)O)cc5n4C[C@@H]4CCO4)cn3)ccn2)c(F)c1` [Compound 544, (S)-2-((6-((2-((2-Fluoro-4-methylphenoxy)methyl)pyridin-4-yl)oxy)pyridin-3-yl)methyl)-1-(oxetan-2-ylmethyl)-1H-benzo[d]imidazole-6-carboxylic acid], the EC50 was less than 50 nM. Regarding `O=C(O)c1ccc2nc(CN3CC=C(c4ccnc(COc5ccc(Cl)cc5F)c4)C3)n(Cc3ncco3)c2c1` [Compound 404, 2-[(3-{2-[(4-chloro-2-fluorophenoxy)methyl]pyridin-4-yl}-2,5-dihydro-1H-pyrrol-1-yl)methyl]-1-[(1,3-oxazol-2-yl)methyl]-1H-1,3-benzodiazole-6-carboxylic acid], the EC50 was less than 50 nM.

In the case of `N#Cc1ccc(OCc2nc(C3=CCN(Cc4nc5c(F)cc(C(=O)O)cc5n4CC4(CF)CC4)C3)ccc2F)c(F)c1` [Compound 416, 2-[(3-{6-[(4-cyano-2-fluorophenoxy)methyl]-5-fluoropyridin-2-yl}-2,5-dihydro-1H-pyrrol-1-yl)methyl]-4-fluoro-1-{[1-(fluoromethyl)cyclopropyl]methyl)-1H-1,3-benzodiazole-6-carboxylic acid], the EC50 was less than 50 nM.
